{"source": "paper PMC4319692", "about": "(Molecular Pharmaceutics, 2014)", "experiment": "Metabolic stability in human liver microsomes", "format": "in vitro ADME", "conditions": "10 μM, pooled human liver microsomes 1 mg/mL with cofactors, 2 h"}
{"smiles": "C[C@]12CC[C@H]3[C@@H](CCC4=CC(=O)CC[C@@]43C)[C@@H]1CC[C@@H]2O", "note": "[testosterone]", "values": [{"measurement": "decrease (disappearance) of parent compound", "value": "more than 95%"}]}
